Reference: patent US20110071289A1, “AMINOPYRAZOLE AMIDE DERIVATIVE” (DAINIPPON SUMITOMO PHARMA CO., LTD., priority 2007, published 2011)

How the values were obtained:
[1] = test system: cortisone reducing activity of cultured human adipocytes; assay: Inhibitory activity assay for cortisone reducing activity of cultured human adipocytes; assay type: cell-based; settings: 100 nM [1,2-3H] cortisone, 37° C. for 3 hours
Description: Normal human proadipocytes (HPrAD-vis, Cambrex) were inoculated on 48 well plate, and differentiated according to a protocol attached to a kit. Media for cells on 9-11th day of differentiation were changed to 0.2 ml of D-MEM media (GIBCO, Inc.) containing 100 nM [1,2-^3H] cortisone (1 μCi/well, Muromati Yakuhin), 0.5% DMSO, test compound (DMSO only for test compound-addition districts and test compound additive-free districts). After incubation at 37° C. for 3 hours, all media were collected. As background districts, cell additive-free media were used. Media were mixed with ethyl acetate (0.1 ml) in Eppendorf tube. The mixture was vortexed, and then centrifuged at 5,000 rpm×1 minute at room temperature to separate ethyl acetate (upper layer). Ethyl acetate (10 μl) was spotted on aluminum plate for thin-layer chromatography (silica gel 60 angstrom, Merck, referred to as TLC plate hereinafter). To a sealed vessel was added chloroform/methanol (90:10, v/v) as an eluent, and TLC plate was developed and then dried at room temperature. To the dried TLC plate was exposed an imaging plate (TR-2040, FUJIFILM) over 16 or more hours. After exposure, the imaging plate was analyzed by Bioimage analyzer (BAS2500, FUJIFILM), and [^3H] radioactivity of the spot corresponding to cortisol on TLC plate was determined Inhibitory activities of cortisone reducing activities of test compounds were calculated as below.
(Inhibitory activity (%))=100×((Test compound additive-free districts)−(Test compound-addition districts))/((Test compound additive-free districts)−(Background districts))
IC50 values were calculated by a linear regression of logarithmic values of analyte concentrations and inhibitory activity values using 2-point data wherein inhibitory activities indicated values around 50%. […] IC50 values for human adipocyte cortisone reducing activities of the following inventive compounds were determined

human 11βHSD1 = molecular target: T1, human 11βHSD1 (Homo sapiens, UniProt P28845); assay: Measurement of human 11βHSD1 inhibitory activity (HTRF cortisol detection); assay type: biochemical; settings: human 11βHSD1 enzyme fraction, 20 nM cortisone, 37° C. for 2 hours
T1 construct: made in house; host or cells: CHO-K1 cells stably transfected with pCMV-Tag 2B plasmid; pellet after ultracentrifugation at 100,000 g
Text: A sequence containing ORF of human 11βHSD1 gene (GenBank Accession No. BC012593) was amplified according to PCR technique which was one of conventional methods, and digested by a restriction enzyme BamHI/XhoI. 2 kb of DNA fragments obtained from agarose gels were inserted into pCMV-Tag 2B plasmids (Stratagene) according to a conventional method. The plasmids prepared in Escherichia coli in large amounts were transformed into CHO-K1 cells, and then cells stably expressing human 11βHSD1 genes were selected by medium containing 400 μg/ml G-418 solution (GIBCO, Inc.) containing media. The resulting stably expressing cells were incubated up to −90% confluent in F-12 medium (Nacalai Tesque, Inc.) containing 10% charcoal-dextran treated fetal bovine serum (Hyclone), 1% penicillin-streptomycin (Nacalai Tesque, Inc.) and 400 μg/ml G-418. The resultant cells were treated by tripsin, and the obtained cells were suspended in the above media (1 L) and seeded in cell stack 10 chamber (Corning) in total amounts. The mixture was incubated in CO2 incubator (5% CO2, 37° C.) for 4-5 days, and then treated by tripsin. Total amounts of the obtained cells were washed with PBS buffer (GIBCO, Inc.), and stored at −80° C. […]
A test compound and cortisone (Sigma) was diluted with buffer (50 mM HEPES pH7.3, 150 mM NaCl, 1 mM EDTA) to prepare a substrate solution containing a test compound (50 mM HEPES pH7.3, 150 mM NaCl, 1 mM EDTA, 1 mM NADPH, 20 nM cortisone) (2% DMSO solution), and the solution was added to 384-well low-volume plate (manufactured by Greiner, No. 3782086) in 4 μl/well. […] After the enzyme reaction, the produced cortisol was detected by Homogeneous time-resolved fluorescence (HTRF) to determine enzyme inhibitory activities. […] A fluorescence intensity was determined by 2120 EnVision® Multilabel counter (PerkinElmer) to calculate enzyme inhibitory activities from 2 wavelengths of fluorescence intensity ratios (665 nm/620 nm).
Each inhibitory activity (%) of each test compound was calculated from the average value (%) of inhibitory activities of 4 wells under the same condition. […]

T1 sequence (P28845 whole entry): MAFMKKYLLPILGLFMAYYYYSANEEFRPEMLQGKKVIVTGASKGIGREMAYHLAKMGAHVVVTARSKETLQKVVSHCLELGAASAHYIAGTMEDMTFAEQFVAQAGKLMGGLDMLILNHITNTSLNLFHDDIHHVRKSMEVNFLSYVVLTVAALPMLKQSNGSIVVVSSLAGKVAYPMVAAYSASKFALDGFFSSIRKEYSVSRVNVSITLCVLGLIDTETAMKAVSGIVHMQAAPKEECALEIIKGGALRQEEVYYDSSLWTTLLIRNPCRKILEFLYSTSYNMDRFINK

CC(C)N(C)c1cc(C(=O)N[C@H]2C3CC4CC2C[C@](C(N)=O)(C4)C3)nn1C [Example 8, N-[(E)-5-Carbamoyladamantan-2-yl]-5-[isopropyl(methyl)amino]-1-methyl-1H-pyrazole-3-carboxamide]
IC50 ([1]; Adipocyte): 8.7 nM

CN(C)c1c(Cl)c(C(=O)N[C@H]2C3CC4CC2C[C@](C(N)=O)(C4)C3)nn1C [Example 11, N-[(E)-5-Carbamoyladamantan-2-yl]-4-chloro-5-(dimethylamino)-1-methyl-1H-pyrazole-3-carboxamide]
IC50 (human 11βHSD1): 32 nM

CN(CC1CC1)c1cc(C(=O)N[C@H]2C3CC4CC2C[C@](C(N)=O)(C4)C3)nn1C [Example 15, N-[(E)-5-Carbamoyladamantan-2-yl]-5-[(cyclopropylmethyl)(methyl)amino]-1-methyl-1H-pyrazole-3-carboxamide]
IC50 (human 11βHSD1): 39 nM

CN(c1cc(C(=O)N[C@H]2C3CC4CC2C[C@](C(N)=O)(C4)C3)nn1C)C1CCC1 [Example 19, N-[(E)-5-Carbamoyladamantan-2-yl]-5-[cyclobutyl(methyl)amino]-1-methyl-1H-pyrazole-3-carboxamide]
IC50 (human 11βHSD1): 25 nM

COc1ccc(C2(N(C)c3c(Cl)c(C(=O)NC4C5CC6CC4CC(C(N)=O)(C6)C5)nn3C)CC2)cc1 (stereo not drawn) [Example 22, N-[(E)-5-(Aminocarbonyl)-2-adamantyl]-4-chloro-5-[[1-(4-methoxyphenyl)cyclopropyl](methyl)amino]-1-methyl-1H-pyrazole-3-carboxamide]
IC50 [1]: 1.8 nM

CN(CC1CCN(c2ccc(C#N)cn2)CC1)c1c(Cl)c(C(=O)N[C@H]2C3CC4CC2C[C@](O)(C4)C3)nn1C [Example 166, 4-Chloro-5-[{[1-(5-cyanopyridin-2-yl)piperidin-4-yl]methyl}(methyl)amino]-N-[(E)-5-hydroxy-2-adamantyl]-1-methyl-1H-pyrazole-3-carboxamide]
IC50 ([1]; Adipocyte): 6.4 nM
